For orientation: IC50 means the concentration needed to halve the response being measured.

A value given as a limit tells only on which side of the number the result lay.

The values that follow come from patent US8580812B2, “Heteroaryl amide analogues as P2X7 antagonists” (H. Lundbeck A/S, priority 2007, dated 2013).

For the test, the target named is T1, P2X7 (Homo sapiens, UniProt Q99572).
T1 construct: host or cells: SH-SY5Y
T1 sequence (Q99572 1-595): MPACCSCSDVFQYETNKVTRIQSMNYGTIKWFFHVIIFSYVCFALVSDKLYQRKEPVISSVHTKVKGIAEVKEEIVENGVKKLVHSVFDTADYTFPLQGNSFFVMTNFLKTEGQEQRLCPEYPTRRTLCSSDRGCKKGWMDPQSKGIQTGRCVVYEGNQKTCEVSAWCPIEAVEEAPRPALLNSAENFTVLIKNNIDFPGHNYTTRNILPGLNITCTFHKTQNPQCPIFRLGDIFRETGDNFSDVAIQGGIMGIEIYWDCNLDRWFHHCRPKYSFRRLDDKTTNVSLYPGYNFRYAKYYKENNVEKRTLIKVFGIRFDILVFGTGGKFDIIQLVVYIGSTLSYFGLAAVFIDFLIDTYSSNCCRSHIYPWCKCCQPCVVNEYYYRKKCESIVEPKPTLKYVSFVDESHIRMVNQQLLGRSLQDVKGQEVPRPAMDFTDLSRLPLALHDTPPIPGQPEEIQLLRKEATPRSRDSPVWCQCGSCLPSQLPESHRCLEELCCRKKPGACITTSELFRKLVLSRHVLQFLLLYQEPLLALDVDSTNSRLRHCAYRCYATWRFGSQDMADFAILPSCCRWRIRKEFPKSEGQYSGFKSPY
Nature of the test: High Throughput P2X7 Calcium Mobilization Assay (Example 4A), antagonist activity. Type of test: cell-based. The conditions noted are these: SH-SY5Y cells, 50% decrease in fluorescence response of cells exposed to 80 μM BzATP. How it is done: A. High Throughput P2X7 Calcium Mobilization Assay
SH-SY5Y cells, ATCC Number CRL-2266, (American Type Culture Collection, Manassas, Va.) are cultured under DMEM/High medium supplemented with 10% FBS, and 10 mM HEPES (Invitrogen Corp., Carlsbad, Calif.) in 5% CO2 and at 37° C. One day prior to the experiment, cells are plated at a density of 100,000 cells/well in a 96 well black/clear TC plate (Corning® Costar®, Sigma-Aldrich Co., St. Louis, Mo.). At the beginning of the experiment, the culture medium is removed and cells are incubated with 50 μL of 2.3 μM Fluo-4 AM dye (Invitrogen Corp.) in the assay solution (5 mM KCl, 9.6 mM NaH2PO4.H2O, 25 mM HEPES, 280 mM Sucrose, 5 mM Glucose, and 0.5 mM CaCl2; pH is adjusted to 7.4 with NaOH) for an hour at 37° C. After one hour dye incubation, wells are rinsed once with 50 μL assay solution, and are then incubated for an hour at room temperature with 100 μL assay solution containing the test compound. The final concentration of test compound generally ranges from 1 to 2500 nM; for positive control cells, no test compound is added. After the one hour incubation, plates are transferred to a FLIPR^TETRA instrument (Molecular Devices, Sunnyvale, Calif.) for calcium mobilization analysis.
For determination of antagonist activity, 50 μL of P2X7 agonist (2′(3′)-O-(4-benzoyl-benzoyl)adenosine 5′-triphosephate (BzATP; Sigma-Aldrich) in the assay solution is transferred using the FLIPR into the plate, such that the final agonist concentration is 80 μM (about EC50). In negative control cells, 50 μL of assay solution without agonist is added at this stage. The peak fluorescence signal over a 2 minute period is then measured.
First, the average maximum relative fluorescent unit (RFU) response from the negative control wells (no agonist) is subtracted from the maximum response detected for each of the other experimental wells. Second, average maximum RFU response is calculated for the positive control wells (agonist wells). Then, percent inhibition for each compound tested is calculated using the equation: Percent Inhibition=100−100×(Peak Signal in Test Cells/Peak Signal in Control Cells) The % inhibition data is plotted as a function of test compound concentration and test compound IC50 is determined using, for example, KALEIDAGRAPH software (Synergy Software, Reading, Pa.) best fit of the data to the equation: y=m1*(1/(1+(m2/m0)^m3)) where y is the percent inhibition, m0 is […], m1 is the maximum RFU, m2 corresponds to the test compound IC50 (the concentration required to provide a 50% decrease, relative to the response observed in the presence of agonist and without antagonist) and m3 is the Hill coefficient.
Background: Calcium assays in cells follow changes in intracellular calcium, usually with a dye or a luminescent sensor.

Regarding “2-{[(3R)-3- aminopyrrolidin-1- yl]carbonyl}-N-[4- methyl-2-(4- methylphenyl)pentyl] pyrazolo[1,5-a]pyridine- 4-carboxamide [Compound 73]”, the IC50 was at most 2000 nM.
Take `CC(C)CC(CNC(=O)c1cccn2nc(C(=O)N3C[C@@H](C)O[C@@H](C)C3)cc12)c1ccc(C(F)(F)F)cc1` (single isomer, unassigned) [Compound 100]: the IC50 is at most 2000 nM.
With `CC(C)CC(CNC(=O)c1cccn2nc(C(=O)N3[C@H](C)COC[C@@H]3C)cc12)c1ccc(C(F)(F)F)cc1` (single isomer, unassigned) [Compound 102], the IC50 was at most 2000 nM.
`CC(C)N[C@@H]1CCN(C(=O)c2cc3c(C(=O)NCC45CC6CC(CC(C6)C4)C5)cccn3n2)C1` [Compound 16, N-(adamantan-1-ylmethyl)-2-{[(3R)-3-(isopropylamino)pyrrolidin-1-yl]carbonyl}pyrazolo [l,5-a]pyridine-4-carboxamide]: the IC50 is at most 2000 nM.
In the case of `N[C@@H]1CCCN(C(=O)c2cc3c(C(=O)NCC45CC6CC(CC(C6)C4)C5)cccn3n2)C1` [Compound 17, N-(adamantan-1-ylmethyl)-2-{[(3R)-3-aminopiperidin-1-yl]carbonyl}pyrazolo [1,5-a]pyridine-4-carboxamide] it was at most 2000 nM; in that of `COCCN(C)C(=O)c1cc2c(C(=O)NCC34CC5CC(CC(C5)C3)C4)cccn2n1` [Compound 18, 4-N-(adamantan-1-ylmethyl)-2-N-(2-methoxyethyl)-2-N-methylpyrazolo[1,5-a]pyridine-2,4-dicarboxamide], at most 2000 nM.
In the case of `CN(C(=O)c1cc2c(C(=O)NCC34CC5CC(CC(C5)C3)C4)cccn2n1)c1ccccn1` [Compound 19, 4-N-(adamantan-1-ylmethyl)-2-N-methyl-2-N-pyridin-2-ylpyrazolo[1,5-a]pyridine-2,4-dicarboxamide] it was at most 2000 nM; in that of `O=C(NCC12CC3CC(CC(C3)C1)C2)c1cccn2nc(C(=O)N3CCn4cncc4C3)cc12` [Compound 20, N-(adamantan-1-ylmethyl)-2-(5,6-dihydroimidazo[1,5-a]pyrazin-7(8H)-ylcarbonyl)pyrazolo [1,5-a]pyridine-4-carboxamide], at most 2000 nM.
On to `CN(Cc1cccnc1)C(=O)c1cc2c(C(=O)NCC34CC5CC(CC(C5)C3)C4)cccn2n1` [Compound 21, 4-N-(adamantan-1-ylmethyl)-2-N-methyl-2-N-(pyridin-3-ylmethyl)pyrazolo[1,5-a]pyridine-2,4-dicarboxamide], for which the IC50 is at most 2000 nM.
As to `O=C(NCC12CC3CC(CC(C3)C1)C2)c1cccn2nc(C(=O)N3CCOCC3)cc12` [Compound 22, N-(adamantan-1-ylmethyl)-2-(morpholin-4-ylcarbonyl)pyrazolo [1,5-a]pyridine-4-carboxamide], the IC50 was at most 2000 nM.
In the case of `CCOC(=O)CN(C)C(=O)c1cc2c(C(=O)NCC34CC5CC(CC(C5)C3)C4)cccn2n1` [Compound 23, ethyl N-({4-[(adamantan-1-ylmethyl)carbamoyl]pyrazolo[1,5-a]pyridin-2-yl}carbonyl)-N-methylglycinate] it was at most 2000 nM; in that of `O=C(NCC12CC3CC(CC(C3)C1)C2)c1cccn2nc(C(=O)N3CCn4cnnc4C3)cc12` [Compound 24, N-(adamantan-1-ylmethyl)-2-(5,6-dihydro[1,2,4]triazolo [4,3-a]pyrazin-7(8H)-ylcarbonyl)pyrazolo [1,5-a]pyridine-4-carboxamide], at most 2000 nM.
In the case of `O=C(NCC12CC3CC(CC(C3)C1)C2)c1cccn2nc(CC(=O)N3CCOCC3)cc12` [Compound 25, N-(adamantan-1-ylmethyl)-2-(2-morpholin-4-yl-2-oxoethyl)pyrazolo[1,5-a]pyridine-4-carboxamide] it was at most 2000 nM; in that of `CN(Cc1cncn1C)C(=O)c1cc2c(C(=O)NCC34CC5CC(CC(C5)C3)C4)cccn2n1` [Compound 26, 4-N-(adamantan-1-ylmethyl)-2-N-methyl-2-N-[(1-methyl-1H-imidazol-5-yl)methyl]pyrazolo[1,5-a]pyridine-2,4-dicarboxamide], at most 2000 nM.
In the case of `CN(C)[C@@H]1CCN(C(=O)c2cc3c(C(=O)NCC45CC6CC(CC(C6)C4)C5)cccn3n2)C1` [Compound 27, N-(adamantan-1-ylmethyl)-2-{[(3R)-3-(dimethylamino)pyrrolidin-1-yl]carbonyl}pyrazolo [1,5-a]pyridine-4-carboxamide] it was at most 2000 nM.
Regarding `CN(C(=O)c1cc2c(C(=O)NCC34CC5CC(CC(C5)C3)C4)cccn2n1)C1CCOC1` (stereo not drawn) [Compound 28, 4-N-(adamantan-1-ylmethyl)-2-N-methyl-2-N-(tetrahydrofuran-3-yl)pyrazolo[1,5-a]pyridine-2,4-dicarboxamide], the IC50 is at most 2000 nM.
For the molecule `CCOC(=O)CN(C)Cc1cc2c(C(=O)NCC34CC5CC(CC(C5)C3)C4)cccn2n1` [Compound 29, ethyl N-({4-[(adamantan-1-ylmethyl)carbamoyl]pyrazolo[1,5-a]pyridin-2-yl}methyl)-N-methylglycinate], the IC50 was at most 2000 nM.
Then `Cc1nc2c(c(=O)[nH]1)CN(C(=O)c1cc3c(C(=O)NCC45CC6CC(CC(C6)C4)C5)cccn3n1)CC2` [Compound 30, N-(adamantan-1-ylmethyl)-2-[(2-methyl-4-oxo-3,5,7,8-tetrahydropyrido[4,3-d]pyrimidin-6(4H)-yl)carbonyl]pyrazolo [1,5-a]pyridine-4-carboxamide], with at most 2000 nM; and `CCN(CC)[C@@H]1CCN(C(=O)c2cc3c(C(=O)NCC45CC6CC(CC(C6)C4)C5)cccn3n2)C1` [Compound 31, N-(adamantan-1-ylmethyl)-2-{[(3R)-3-(diethylamino)pyrrolidin-1-yl]carbonyl}pyrazolo [1,5-a]pyridine-4-carboxamide], with at most 2000 nM.
In the case of `O=C1CN(C(=O)c2cc3c(C(=O)NCC45CC6CC(CC(C6)C4)C5)cccn3n2)CCN1` [Compound 32, N-(adamantan-1-ylmethyl)-2-[(3-oxopiperazin-1-yl)carbonyl]pyrazolo [1,5-a]pyridine-4-carboxamide] it was at most 2000 nM.
Then `CN(Cc1ccncc1)C(=O)c1cc2c(C(=O)NCC34CC5CC(CC(C5)C3)C4)cccn2n1` [Compound 33, 4-N-(adamantan-1-ylmethyl)-2-N-methyl-2-N-(pyridin-4-ylmethyl)pyrazolo[1,5-a]pyridine-2,4-dicarboxamide], with at most 2000 nM; and `Cn1ncc2c1CCN(C(=O)c1cc3c(C(=O)NCC45CC6CC(CC(C6)C4)C5)cccn3n1)C2` [Compound 34, N-(adamantan-1-ylmethyl)-2-[(1-methyl-1,4,6,7-tetrahydro-5H-pyrazolo[4,3-c]pyridin-5-yl)carbonyl]pyrazolo [1,5-a]pyridine-4-carboxamide], with at most 2000 nM; and `O=C(NC1CCOCC1)c1cc2c(C(=O)NCC34CC5CC(CC(C5)C3)C4)cccn2n1` [Compound 35, 4-N-(adamantan-1-ylmethyl)-2-N-(tetrahydro-2H-pyran-4-yl)pyrazolo[1,5-a]pyridine-2,4-dicarboxamide], with at most 2000 nM.
In the case of `O=C1NCC2(CCN(C(=O)c3cc4c(C(=O)NCC56CC7CC(CC(C7)C5)C6)cccn4n3)CC2)O1` [Compound 36, N-(adamantan-1-ylmethyl)-2-[(2-oxo-1-oxa-3,8-diazaspiro[4.5]dec-8-yl)carbonyl]pyrazolo [1,5-a]pyridine-4-carboxamide], the IC50 was at most 2000 nM.
